# Test results published in patent US20210038607A1, “OXADIAZOLYLTHIOPHENE DERIVATIVES USEFUL AS HISTONE DEACETYLASE INHIBITORS” (Karus Therapeutics Limited, priority 2018, published 2021).
# Columns and labels:
# Recombinant human HDAC6 = target: T1, Recombinant human HDAC6 (Homo sapiens, UniProt Q9UBN7); assay: HDAC6 biochemical assay, AMC-labeled peptide substrate; details: HDAC6; read-out: HDAC Isoform IC50 (nM) 6
# T1 construct: full length, MW=159 kDa; GST (N); host or cells: Sf9 insect cells (baculovirus)
# T1 sequence (Q9UBN7 1-1215): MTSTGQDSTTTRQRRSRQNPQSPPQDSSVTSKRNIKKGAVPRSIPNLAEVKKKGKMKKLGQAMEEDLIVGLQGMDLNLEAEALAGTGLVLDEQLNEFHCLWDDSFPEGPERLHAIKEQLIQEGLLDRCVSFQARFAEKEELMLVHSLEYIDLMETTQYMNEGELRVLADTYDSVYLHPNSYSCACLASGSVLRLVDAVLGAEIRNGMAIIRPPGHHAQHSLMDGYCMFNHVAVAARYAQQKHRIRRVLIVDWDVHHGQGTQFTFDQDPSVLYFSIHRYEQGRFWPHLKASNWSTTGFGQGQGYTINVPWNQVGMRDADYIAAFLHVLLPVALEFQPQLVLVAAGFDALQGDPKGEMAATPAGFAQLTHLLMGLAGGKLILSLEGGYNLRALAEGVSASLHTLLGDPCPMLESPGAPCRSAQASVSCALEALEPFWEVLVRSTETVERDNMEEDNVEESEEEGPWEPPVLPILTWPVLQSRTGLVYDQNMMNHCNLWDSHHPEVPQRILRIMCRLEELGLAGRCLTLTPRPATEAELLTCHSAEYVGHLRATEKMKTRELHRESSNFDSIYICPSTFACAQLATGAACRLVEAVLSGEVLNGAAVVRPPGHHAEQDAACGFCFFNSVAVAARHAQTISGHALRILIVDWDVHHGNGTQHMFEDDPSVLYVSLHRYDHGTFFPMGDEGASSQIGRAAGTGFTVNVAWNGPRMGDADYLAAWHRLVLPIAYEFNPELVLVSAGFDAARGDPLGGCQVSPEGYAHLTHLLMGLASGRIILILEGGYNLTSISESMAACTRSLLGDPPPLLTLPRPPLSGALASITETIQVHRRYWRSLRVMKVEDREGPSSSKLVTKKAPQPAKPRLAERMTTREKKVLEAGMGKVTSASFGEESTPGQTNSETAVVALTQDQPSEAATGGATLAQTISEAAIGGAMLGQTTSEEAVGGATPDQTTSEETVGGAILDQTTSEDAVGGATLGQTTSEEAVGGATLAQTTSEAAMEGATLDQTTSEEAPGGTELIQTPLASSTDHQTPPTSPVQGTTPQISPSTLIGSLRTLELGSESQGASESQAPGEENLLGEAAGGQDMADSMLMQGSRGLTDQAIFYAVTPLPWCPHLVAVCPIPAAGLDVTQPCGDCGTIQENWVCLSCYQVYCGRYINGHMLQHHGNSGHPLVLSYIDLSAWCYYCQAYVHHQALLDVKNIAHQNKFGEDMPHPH
# Procedure, shortened: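 Two-step fluorogenic read-out: enzyme deacetylates 50 μM RHKK(Ac)AMC for 1 h at 30° C in pH 8.0 Tris buffer with BSA and 1% DMSO, then developer cleavage gives signal at Ex 360/Em 460. Enzyme: 0.3 ng/ul recombinant full-length human HDAC6, GST-tagged, Sf9-expressed.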
# [1] = target: T2, Complex of human HDAC3 and human NCOR2 (Homo sapiens, UniProt O15379); assay: HDAC3 biochemical assay, AMC-labeled peptide substrate; details: read-out: HDAC Isoform IC50 (nM) 3
# T2 construct: full length with C-terminal His tag, MW=49.7 kDa; His (C); host or cells: baculovirus expression system (co-expressed)
# Procedure, shortened: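 Baculovirus-coexpressed His-tagged full-length HDAC3 with GST-NCOR2 (aa 395-489), 0.1 ng/ul, deacetylates 50 μM RHKK(Ac)AMC in Tris-HCl pH8.0 with BSA and 1% DMSO, 1 h at 30° C. Developer then cleaves deacetylated substrate; fluorescence read at 360/460 Ex/Em.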
# Human HDAC4 = target: T3, Human HDAC4 (Homo sapiens, UniProt P56524); assay: HDAC4 biochemical assay, class IIa-specific substrate; details: read-out: HDAC Isoform IC50 (nM) 4
# T3 construct: amino acids 627-1085 with N-terminal GST tag; GST (N); host or cells: baculovirus expression system
# Procedure, shortened: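 GST-tagged human HDAC4 (aa 627-1085, baculovirus) at 0.004 ng/ul was incubated 30 min at room temperature with 50 μM class IIa-specific substrate BOC-Lys(trifluoroacetyl)-AMC in Tris-HCl pH 8.0 buffer with BSA, 1% DMSO. Developer then released AMC, read at 360/460 nm.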
# T3 sequence (P56524 627-1084 limits assumed): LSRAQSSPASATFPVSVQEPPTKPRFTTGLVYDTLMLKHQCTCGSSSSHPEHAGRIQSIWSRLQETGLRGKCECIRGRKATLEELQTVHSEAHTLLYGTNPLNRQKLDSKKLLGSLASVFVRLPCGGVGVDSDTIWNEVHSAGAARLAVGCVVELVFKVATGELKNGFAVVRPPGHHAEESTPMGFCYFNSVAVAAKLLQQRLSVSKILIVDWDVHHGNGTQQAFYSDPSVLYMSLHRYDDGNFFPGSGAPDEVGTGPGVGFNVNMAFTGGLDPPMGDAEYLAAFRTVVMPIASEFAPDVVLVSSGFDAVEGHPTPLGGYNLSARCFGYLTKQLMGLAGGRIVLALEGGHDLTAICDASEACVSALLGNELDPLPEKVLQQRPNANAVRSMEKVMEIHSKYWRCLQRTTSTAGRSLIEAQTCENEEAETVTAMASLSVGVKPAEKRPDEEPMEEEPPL
# T2 sequence (O15379 whole entry, canonical isoform): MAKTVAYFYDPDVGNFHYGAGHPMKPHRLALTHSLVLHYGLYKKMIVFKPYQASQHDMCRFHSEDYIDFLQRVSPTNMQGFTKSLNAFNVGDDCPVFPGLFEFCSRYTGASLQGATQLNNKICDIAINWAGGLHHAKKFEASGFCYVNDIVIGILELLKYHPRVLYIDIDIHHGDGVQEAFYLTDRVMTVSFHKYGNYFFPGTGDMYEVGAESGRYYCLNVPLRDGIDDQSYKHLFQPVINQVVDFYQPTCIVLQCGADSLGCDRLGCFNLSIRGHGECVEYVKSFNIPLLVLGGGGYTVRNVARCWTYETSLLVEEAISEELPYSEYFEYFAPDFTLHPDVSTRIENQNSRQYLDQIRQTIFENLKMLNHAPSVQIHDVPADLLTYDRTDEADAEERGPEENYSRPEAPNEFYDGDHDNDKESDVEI
# T2 sequence (Q9Y618 395-489 partner limits assumed): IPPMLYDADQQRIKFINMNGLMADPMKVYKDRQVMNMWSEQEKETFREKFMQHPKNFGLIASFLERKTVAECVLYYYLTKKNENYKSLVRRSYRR
compound,measurement,setting,value
"CS(=O)(=O)c1ccc(N(Cc2ccc(-c3noc(C(F)(F)F)n3)s2)c2cnccn2)nn1 [Example DL, 6-Methanesulfonyl-N-(pyrazin-2-yl)-N-({5-[5-(trifluoromethyl)-1,2,4-oxadiazol-3-yl]thiophen-2-yl}methyl)pyridazin-3-amine]",IC50,Recombinant human HDAC6,≤ 500 nM
same,IC50,[1],> 10000 nM
same,IC50,Human HDAC4,≤ 500 nM
"FC(F)(F)c1ccc(N(Cc2ccc(-c3noc(C(F)(F)F)n3)s2)c2cnccn2)nn1 [Example DH, N-(Pyrazin-2-yl)-6-(trifluoromethyl)-N-({5-[5-(trifluoromethyl)-1,2,4-oxadiazol-3-yl]thiophen-2-yl}methyl)pyridazin-3-amine]",IC50,Recombinant human HDAC6,≤ 500 nM
same,IC50,[1],≤ 10000 nM
same,IC50,Human HDAC4,≤ 1000 nM
"CS(=O)(=O)c1nccc(N(Cc2ccc(-c3noc(C(F)(F)F)n3)s2)c2cnccn2)n1 [Example CE, 2-Methanesulfonyl-N-(pyrazin-2-yl)-N-({5-[5-(trifluoromethyl)-1,2,4-oxadiazol-3-yl]thiophen-2-yl}methyl)pyrimidin-4-amine]",IC50,Recombinant human HDAC6,≤ 500 nM
same,IC50,Human HDAC4,≤ 10000 nM
"FC(F)(F)c1nc(-c2ccc(CN(c3cncnc3)c3cnccn3)s2)no1 [Example CR, N-(Pyrazin-2-yl)-N-({5-[5-(trifluoromethyl)-1,2,4-oxadiazol-3-yl]thiophen-2-yl}methyl)pyrimidin-5-amine]",IC50,Recombinant human HDAC6,≤ 500 nM
same,IC50,[1],> 10000 nM
same,IC50,Human HDAC4,≤ 500 nM
"FC(F)(F)c1nc(-c2ccc(CN(c3ccncn3)c3cnccn3)s2)no1 [Example BZ, N-(Pyrazin-2-yl)-N-({5-[5-(trifluoromethyl)-1,2,4-oxadiazol-3-yl]thiophen-2-yl}methyl)pyrimidin-4-amine]",IC50,Recombinant human HDAC6,≤ 500 nM
same,IC50,[1],> 10000 nM
same,IC50,Human HDAC4,≤ 500 nM
"FC(F)(F)c1nc(-c2ccc(CN(c3cnccn3)c3ccc(N4CCCC4)nn3)s2)no1 [Example DI, N-(Pyrazin-2-yl)-6-(pyrrolidin-1-yl)-N-({5-[5-(trifluoromethyl)-1,2,4-oxadiazol-3-yl]thiophen-2-yl}methyl)pyridazin-3-amine]",IC50,Recombinant human HDAC6,≤ 500 nM
same,IC50,[1],≤ 10000 nM
same,IC50,Human HDAC4,≤ 1000 nM
"FC(F)(F)c1nc(-c2ccc(CN(c3ccccn3)c3cnccn3)s2)no1 [Example V, N-(Pyridin-2-yl)-N-({5-[5-(trifluoromethyl)-1,2,4-oxadiazol-3-yl]thiophen-2-yl}methyl)pyrazin-2-amine]",IC50,Recombinant human HDAC6,≤ 500 nM
same,IC50,[1],> 10000 nM
same,IC50,Human HDAC4,≤ 10000 nM
